Assay results as given in patent US20080161232A1, “C5a Receptor Antagonist” (JERINI AG, priority 2005, published 2008).
Starred links: 1 amine or outer side, 2 acyl side, 3 side chain; linkers in the order of their positions; H or OH if unused. Positions of bridges follow the written chain, without caps; N, C: chain ends. Non-standard residues stand in square brackets, D forms with d. Residues, ends and D or L forms follow the SMILES beside them. *: point of attachment. Dihydroorotyl(S) = O=C1C[C@@H](C(=O)*)NC(=O)N1; Phe(Nα-CONH2) = NC(=O)N[C@@H](Cc1ccccc1)C(=O)*; Phe(3,4-F2) = N[C@@H](Cc1ccc(F)c(F)c1)C(=O)O; dβ3hPhg = O=C(C[C@H](N[*:1])c1ccccc1)[*:2]; Phe(3-OMe) = COc1cccc(C[C@H](N)C(=O)O)c1; Phe(4-F) = N[C@@H](Cc1ccc(F)cc1)C(=O)O; Bta = N[C@@H](Cc1csc2ccccc12)C(=O)O; Hydrocinnamoyl = O=C(CCc1ccccc1)*; Hyp = O=C(O)[C@@H]1C[C@@H](O)CN1; d(hLeu) = CC(C)CC[C@@H](N)C(=O)O; 2Thi = N[C@@H](Cc1cccs1)C(=O)O; Cit = NC(=O)NCCC[C@H](N)C(=O)O; dCha = N[C@H](CC1CCCCC1)C(=O)O; Chg = N[C@H](C(=O)O)C1CCCCC1; hLeu = CC(C)CC[C@H](N)C(=O)O; Nle = CCCC[C@H](N)C(=O)O; Orn = NCCC[C@H](N)C(=O)O; Aze = O=C(O)[C@@H]1CCN1; Nva = CCC[C@H](N)C(=O)O; Piv = CC(C)(C)C(=O)*; X16 = c1ccc(C*)nc1

Target: T1, human C5aR(CD88) (Homo sapiens, UniProt P21730)
T1 construct: expressed in transfected cells; host or cells: rat basophilic leukemia cells (RBL)
T1 sequence (P21730 1-350): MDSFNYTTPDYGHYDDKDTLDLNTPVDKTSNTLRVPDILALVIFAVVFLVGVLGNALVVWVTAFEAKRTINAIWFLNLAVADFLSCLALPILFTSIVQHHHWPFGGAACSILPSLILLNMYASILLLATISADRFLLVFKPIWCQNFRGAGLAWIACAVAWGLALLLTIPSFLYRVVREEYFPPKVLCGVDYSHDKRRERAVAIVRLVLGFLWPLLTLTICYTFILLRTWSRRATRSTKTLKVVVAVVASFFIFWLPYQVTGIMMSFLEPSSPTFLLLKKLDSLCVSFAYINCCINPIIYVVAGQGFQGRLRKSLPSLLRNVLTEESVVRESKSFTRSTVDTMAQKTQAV
Assay: Determination of the IC50 value in an enzyme release assay (functional assay, antagonistic activity)
Type: cell-based
Settings: for IC50: antagonistic activity, IC50 group in enzyme release assay, RBL cells expressing human C5aR(CD88), read-out: activity (group)

Molecule	IC50	inhibitory activity (in words) (functional assay of example 11, noteworthy = IC50 less than 200 nM)
CC(C)CC[C@H]1NC(=O)[C@@H]2C[C@@H](O)CN2C(=O)[C@@H](NC(=O)[C@@H](N)Cc2ccccc2)CCCNC(=O)[C@H](C2CCCCC2)NC(=O)[C@H](Cc2ccc(F)cc2)NC1=O [Compound 362, H-Phe-[Orn-Hyp-hle-Pff-Chg]] (H-F[Orn][Hyp][d(hLeu)][Phe(4-F)][Chg]; lactam 2-C)	50 to 200 nM	–
CC(=O)N[C@@H](Cc1ccccc1)C(=O)N[C@@H](CCCN)C(=O)N1CC[C@H]1C(=O)N[C@H](CC1CCCCC1)C(=O)N[C@@H](Cc1csc2ccccc12)C(=O)N[C@@H](Cc1ccccc1)C(N)=O [Compound 52, Ac-Phe-Orn-Aze-cha-Bta-Phe-NH2] (Ac-F[Orn][Aze][dCha][Bta]F-NH2)	10 to 20 nM	–
COc1cccc(C[C@H](NC(=O)[C@@H](CCC(C)C)NC(=O)[C@@H]2CCCN2C(=O)[C@H](CCCN)NC(=O)[C@H](Cc2ccccc2)NC(C)=O)C(=O)N[C@@H](Cc2ccccc2)C(N)=O)c1 [Compound 293, Ac-Phe-Orn-Pro-hle-Mmy-Phe-NH2] (Ac-F[Orn]P[d(hLeu)][Phe(3-OMe)]F-NH2)	50 to 200 nM	–
CC(C)CC[C@H]1NC(=O)[C@@H]2CCCN2C(=O)[C@@H](NC(=O)[C@@H](N)Cc2ccccc2)CCCNC(=O)[C@H](Cc2ccccc2)NC(=O)[C@H](Cc2ccc(F)cc2)NC1=O [Compound 380, H-Phe-[Orn-Pro-hle-Pff-Phe]] (H-F[Orn]P[d(hLeu)][Phe(4-F)]F; lactam 2-C)	20 to 50 nM	–
NCCC[C@H](NC(=O)CCc1ccccc1)C(=O)N1CC[C@H]1C(=O)N[C@H](CC1CCCCC1)C(=O)N[C@@H](Cc1csc2ccccc12)C(=O)N[C@@H](Cc1ccccc1)C(N)=O [Compound 106, 3PP-Orn-Aze-cha-Bta-Phe-NH2] (Hydrocinnamoyl-[Orn][Aze][dCha][Bta]F-NH2)	50 to 200 nM	–
CCCC[C@@H]1NC(=O)[C@H](Cc2ccc(F)cc2)NC(=O)[C@@H](CC2CCCCC2)NC(=O)[C@@H]2CCCN2C(=O)[C@@H](NC(=O)[C@H](Cc2ccccc2)NC(C)=O)CCCNC1=O [Compound 186, Ac-Phe-[Orn-Pro-cha-Pff-Nle]] (Ac-F[Orn]P[dCha][Phe(4-F)][Nle]; lactam 2-C)	50 to 200 nM	–
NCCC[C@H](NC(=O)[C@H](Cc1ccccc1)NC(N)=O)C(=O)N1CCC[C@H]1C(=O)N[C@H](CC1CCCCC1)C(=O)N[C@@H](Cc1csc2ccccc12)C(=O)N[C@@H](Cc1ccccc1)C(N)=O [Compound 128, H2N—CO-Phe-Orn-Pro-cha-Bta-Phe-NH2] ({Phe(Nα-CONH2)}-[Orn]P[dCha][Bta]F-NH2)	20 to 50 nM	–
CC(=O)N[C@@H](CCCCN)C(=O)N[C@@H](Cc1ccccc1)C(=O)N[C@@H](CCCN)C(=O)N1CC[C@H]1C(=O)N[C@H](CC1CCCCC1)C(=O)N[C@@H](Cc1csc2ccccc12)C(=O)N[C@@H](Cc1ccccc1)C(N)=O [Compound 135, Ac-Lys-Phe-Orn-Aze-cha-Bta-Phe-NH2] (Ac-KF[Orn][Aze][dCha][Bta]F-NH2)	10 to 20 nM	–
CCC[C@@H]1NC(=O)[C@H](Cc2c[nH]c3ccccc23)NC(=O)[C@@H](CCC(C)C)NC(=O)[C@@H]2C[C@@H](O)CN2C(=O)[C@@H](NC(=O)[C@@H](N)Cc2ccccc2)CCCNC1=O [Compound 370, H-Phe-[Orn-Hyp-hle-Trp-Nva]] (H-F[Orn][Hyp][d(hLeu)]W[Nva]; lactam 2-C)	50 to 200 nM	–
CC(=O)N[C@@H](Cc1ccccc1)C(=O)N[C@@H](CCCN)C(=O)N1CCC[C@H]1C(=O)N[C@H](CC1CCCCC1)C(=O)N[C@@H](Cc1csc2ccccc12)C(=O)N[C@@H](Cc1ccc(F)c(F)c1)C(N)=O [Compound 251, Ac-Phe-Orn-Pro-cha-Bta-Dff-NH2] (Ac-F[Orn]P[dCha][Bta][Phe(3,4-F2)]-NH2)	20 to 50 nM	–
Ac-Phe-[Orn-Hyp(CONHCH2COH(OH)CH2OH)-cha-Trp-Phe]	–	noteworthy inhibitory activity
CC(C)CC[C@@H]1NC(=O)[C@H](Cc2ccc(F)cc2)NC(=O)[C@@H](CCC(C)C)NC(=O)[C@@H]2C[C@@H](O)CN2C(=O)[C@@H](NC(=O)[C@@H](N)Cc2ccccc2)CCCNC1=O [Compound 363, H-Phe-[Orn-Hyp-hle-Pff-Hle]] (H-F[Orn][Hyp][d(hLeu)][Phe(4-F)][hLeu]; lactam 2-C)	50 to 200 nM	–
CC(=O)N[C@@H](Cc1ccccc1)C(=O)N[C@@H](CCCNC(N)=O)C(=O)N1CCC[C@H]1C(=O)N[C@H](CC1CCCCC1)C(=O)N[C@@H](Cc1csc2ccccc12)C(=O)N[C@@H](Cc1ccccc1)C(N)=O [Compound 210, Ac-Phe-Cit-Pro-cha-Bta-Phe-NH2] (Ac-F[Cit]P[dCha][Bta]F-NH2)	50 to 200 nM	–
CCCC[C@@H]1NC(=O)[C@H](Cc2c[nH]c3ccccc23)NC(=O)[C@@H](CC2CCCCC2)NC(=O)[C@@H]2CCN2C(=O)[C@@H](NC(=O)[C@H](Cc2ccccc2)NC(C)=O)CCCNC1=O [Compound 174, Ac-Phe-[Orn-Aze-cha-Trp-Nle]] (Ac-F[Orn][Aze][dCha]W[Nle]; lactam 2-C)	50 to 200 nM	–
CC(=O)NCCC[C@H](NC(=O)[C@H](Cc1ccccc1)NC(C)=O)C(=O)N1CCC[C@H]1C(=O)N[C@H](CC1CCCCC1)C(=O)N[C@@H](Cc1c[nH]c2ccccc12)C(=O)N[C@@H](Cc1ccccc1)C(N)=O [Compound 82, Ac-Phe-Orn(Ac)-Pro-cha-Trp-Phe-NH2] (Ac-F[Orn](Ac)P[dCha]WF-NH2)	50 to 200 nM	–
CC(=O)N[C@@H](Cc1cccs1)C(=O)N[C@@H](CCCN)C(=O)N1CC[C@H]1C(=O)N[C@H](CC1CCCCC1)C(=O)N[C@@H](Cc1csc2ccccc12)C(=O)N[C@@H](Cc1ccccc1)C(N)=O [Compound 66, Ac-Thi-Orn-Aze-cha-Bta-Phe-NH2] (Ac-[2Thi][Orn][Aze][dCha][Bta]F-NH2)	10 to 20 nM	–
CC(=O)N[C@@H](Cc1ccccc1)C(=O)N[C@@H](CCCN)C(=O)N1CCC[C@H]1C(=O)N[C@H](CCC(C)C)C(=O)N[C@@H](Cc1csc2ccccc12)C(=O)N[C@@H](Cc1ccc(F)cc1)C(N)=O [Compound 279, Ac-Phe-Orn-Pro-hle-Bta-Pff-NH2] (Ac-F[Orn]P[d(hLeu)][Bta][Phe(4-F)]-NH2)	50 to 200 nM	–
CC(=O)N[C@@H](Cc1ccccc1)C(=O)N[C@@H](CCCNC(N)=O)C(=O)N1CCC[C@H]1C(=O)N[C@H](CCC(C)C)C(=O)N[C@@H](Cc1csc2ccccc12)C(=O)N[C@@H](Cc1ccccc1)C(N)=O [Compound 211, Ac-Phe-Cit-Pro-hle-Bta-Phe-NH2] (Ac-F[Cit]P[d(hLeu)][Bta]F-NH2)	20 to 50 nM	–
CC(C)(C)C(=O)N[C@@H](Cc1ccccc1)C(=O)N[C@@H](CCCN)C(=O)N1CCC[C@H]1C(=O)N[C@H](CC1CCCCC1)C(=O)N[C@@H](Cc1csc2ccccc12)C(=O)N[C@@H](Cc1ccccc1)C(N)=O [Compound 134, ^tBu-CO-Phe-Orn-Pro-cha-Bta-Phe-NH2] (Piv-F[Orn]P[dCha][Bta]F-NH2)	50 to 200 nM	–

More lines, main results first:

IC50	Molecule	inhibitory activity (in words) (functional assay of example 11, noteworthy = IC50 less than 200 nM)
20 to 50 nM	CC(C)CC[C@@H](NC(=O)[C@@H]1CCCN1C(=O)[C@H](CCCN)NC(=O)[C@H](Cc1ccccc1)NC(=O)[C@@H]1CC(=O)NC(=O)N1)C(=O)N[C@@H](Cc1ccc(F)cc1)C(=O)N[C@@H](Cc1ccccc1)C(N)=O [Compound 352, Hoo-Phe-Orn-Pro-hle-Pff-Phe-NH2] ({Dihydroorotyl(S)}-F[Orn]P[d(hLeu)][Phe(4-F)]F-NH2)	–
200 to 2000 nM	CC(=O)N[C@@H](Cc1ccccc1)C(=O)N[C@H]1CCCNC(=O)[C@H](CSCc2ccccn2)NC(=O)[C@H](Cc2c[nH]c3ccccc23)NC(=O)[C@@H](CC2CCCCC2)NC(=O)[C@@H]2CCCN2C1=O [compound 18] (Ac-F[Orn]P[dCha]WC(X16); lactam 2-C)	–
50 to 200 nM	CC(=O)N[C@@H](Cc1ccccc1)C(=O)N[C@@H](C)C(=O)N1CCC[C@H]1C(=O)N[C@H](CC1CCCCC1)C(=O)N[C@@H](Cc1csc2ccccc12)C(=O)N[C@@H](Cc1ccccc1)C(N)=O [Compound 206, Ac-Phe-Ala-Pro-cha-Bta-Phe-NH2] (Ac-FAP[dCha][Bta]F-NH2)	–
50 to 200 nM	CC(C)CC[C@H]1NC(=O)[C@H](CO)NC(=O)[C@@H](NC(=O)[C@@H](N)Cc2ccccc2)CCCNC(=O)[C@H](CC(C)C)NC(=O)[C@H](Cc2ccc(F)cc2)NC1=O [Compound 387, H-Phe-[Orn-Ser-hle-Pff-Leu]] (H-F[Orn]S[d(hLeu)][Phe(4-F)]L; lactam 2-C)	–
50 to 200 nM	CCCC[C@@H]1NC(=O)[C@H](Cc2c[nH]c3ccccc23)NC(=O)[C@@H](CC2CCCCC2)NC(=O)[C@H]([C@@H](C)O)NC(=O)[C@@H](NC(=O)[C@H](Cc2ccccc2)NC(C)=O)CCCNC1=O [Compound 203, Ac-Phe-[Orn-Thr-cha-Trp-Nle]] (Ac-F[Orn]T[dCha]W[Nle]; lactam 2-C)	–
50 to 200 nM	CCCC[C@@H]1NC(=O)[C@H](Cc2c[nH]c3ccccc23)NC(=O)[C@@H](CCC(C)C)NC(=O)[C@@H]2C[C@@H](O)CN2C(=O)[C@@H](NC(=O)C[C@H](N)c2ccccc2)CCCNC1=O [Compound 344, H-Eby-[Orn-Hyp-hle-Trp-Nle]] (dβ3hPhg-[Orn][Hyp][d(hLeu)]W[Nle]; lactam 1-C)	–
50 to 200 nM	CC(C)CC[C@H]1NC(=O)[C@@H]2C[C@@H](O)CN2C(=O)[C@@H](NC(=O)[C@@H](N)Cc2ccccc2)CCCNC(=O)[C@H](Cc2ccccc2)NC(=O)[C@H](Cc2ccc(F)cc2)NC1=O [Compound 366, H-Phe-[Orn-Hyp-hle-Pff-Phe]] (H-F[Orn][Hyp][d(hLeu)][Phe(4-F)]F; lactam 2-C)	–
50 to 200 nM	CCCC[C@@H]1NC(=O)[C@H](Cc2c[nH]c3ccccc23)NC(=O)[C@@H](CC2CCCCC2)NC(=O)[C@H](CO)NC(=O)[C@@H](NC(=O)[C@H](Cc2ccccc2)NC(C)=O)CCCNC1=O [Compound 200, Ac-Phe-[Orn-Ser-cha-Trp-Nle]] (Ac-F[Orn]S[dCha]W[Nle]; lactam 2-C)	–
